Patent publication US11834663B2, “Fibrotic treatment” (Monash University, priority 2015, dated 2023)

Test system: human cardiac fibroblasts (HCFs)
Assay: Human cardiac fibroblasts stimulated with Ang II: α-SMA and collagen expression
Type: cell-based
Conditions: HCFs + Ang II 0.1 μM, HFI-419 0.01 to 1 μM, approx. 72 hours; FIG. 26
Method: Commercially available human cardiac fibroblasts (HCF, Catalog #6300, Sciencell, CA, USA) were grown in T75 flask maintained in an incubator at 37° C., 5% CO2. Complete media composition: M199 media (#11150-059, life technologies)+10% FBS (#10437-028, life technologies)+1% Fibroblast Growth Supplement-2 (#2382, ScienCell)+1% penicillin/streptomycin 10,000 U/ml antibiotics (#15140-122, Life Technologies). Fresh complete media was replenished every alternate day until culture reached 70% confluence in which media is replenished daily until it reached approximately 90% confluence in order to passage/subculture. To subculture, media was discarded and culture was rinsed with warm PBS. After which, culture was detached using warm 0.05% Trypsin+EDTA with gentle swirling of flask to make sure cells were not adherent to surface of flask. Trypsin was then neutralized with complete media and suspension was then transferred into a new falcon tube and centrifuged at 1000 rpm for 5 minutes. […]
Once treatment is complete, cells were washed with warm PBS and detached using Accutase (A6964, Sigma), with 5 minutes incubation at 37° C. […] The supernatant (˜20 ul) was transferred to a new tube and protein concentrations were measured using Biorad Lowry protein assay. Protein quantification of respective markers were performed via standard western blot analysis. […]

CCOC(=O)C1=C(NC(C)=O)Oc2cc(O)ccc2C1c1cccnc1 (centres unmarked) [HFI-419]
collagen production in human cardiac fibroblasts: dose-dependently decreased | myofibroblast expression (α-SMA) in human cardiac fibroblasts: dose-dependently decreased
